Experiment [1] concerns the target T1, human orexin 1 receptors (Homo sapiens (Human), UniProt O43613). Put plainly: Radioligand Binding Assay II ([3H]-SB649868 competition, cell membranes). To be noted: read-out: binding II hOx1R Kd. The protocol: (§1) Radioligand Binding Assay II
(§2) For crude cell membrane preparations, cells (CHO, Chinese hamster ovary or HEK, human embryonic kidney) expressing human orexin 1 or human orexin 2 receptors, were washed with HEPES (10 mM, pH 7.5), scraped off the culture plates with the same buffer, and centrifuged at 4° C. for 5 min at 2500×g. The cell pellet was either stored at −80° C. or used directly. Before the experiments, cell membranes were re-suspended in binding assay buffer (10 mM HEPES, 0.5% (w/v) bovine serum albumin, pH 7.5) by homogenisation with a Polytron homogeniser at 50 Hz for 20 s. Cell membranes were also used as made available by commercial providers.
(§3) Bound radioactivity was measured, and data were analysed with the program XLFIT or Graphpad Prism. Protein concentration was determined according to the Bradford/BioRad Protein Assay Kit.
In competition experiments, cell homogenates (150 μl) were incubated in assay buffer (10 mM HEPES, pH 7.5, 0.5% (w/v) bovine serum albumin, 5 mM MgCl2, 1 mM CaCl2, and tween 0.05%) for 1 h at room temperature with about 1 nM of the radioligand [^3H]-SB649868, 66 Ci/mmole, 50 μl), and with various concentrations of compounds of the invention (50 μl) in triplicates; non-specific binding was determined in the presence of almorexant (10 μM). Reactions were terminated by vacuum filtration, 3 washes of ice cold wash buffer (Tris-HCl pH 7.4/10 mM, with NaCl 154 mM). Competition data is expressed in Table 2 as Kd [μM].

The target in experiment [2] is T2, human orexin 2 receptors (Homo sapiens (Human), UniProt O43614). The experiment is described as above. To be noted: read-out: binding II hOx2R Kd. The protocol:
as §1, §2, §3
In competition experiments, cell homogenates (150 μl) were incubated in assay buffer (10 mM HEPES, pH 7.5, 0.5% (w/v) bovine serum albumin, 5 mM MgCl2, 1 mM CaCl2, and tween 0.05%) for 1 h at room temperature with about 1 nM of the radioligand [^3H]-SB649868, 66 Ci/mmole, 50 μl), and with various concentrations of compounds of the invention (50 μl) in triplicates; non-specific binding was determined in the presence of almorexant (10 μM). Reactions were terminated by vacuum filtration, 3 washes of ice cold wash buffer (Tris-HCl pH 7.4/10 mM, with NaCl 154 mM).

The target of experiment [3] is T2, human orexin 2 receptors. Put plainly: Calcium Accumulation in Cells (FLIPR), antagonism of orexin A. It counts as cell-based. To be noted: antagonism of orexin A, Cheng-Prusoff corrected; read-out: FLIPR hOx2R Ki. A digest of the protocol: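 Antagonism was measured as block of orexin A-evoked Ca²⁺ fluorescence (FLIPR), with orexin A added one hour after test compound (usually 10^−9–10^−5 M), which was first read alone for agonist activity. Human orexin 2 receptor cells were dye-loaded with 2 μM Fluo4-AM and 0.1 mM probenecid for 1 h.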

Experiment [4] has as its target T1, human orexin 1 receptors. Described as above. The class given is cell-based. To be noted: antagonism of orexin A, Cheng-Prusoff corrected; read-out: FLIPR hOx1R Ki.

T2 sequence (O43614 whole entry): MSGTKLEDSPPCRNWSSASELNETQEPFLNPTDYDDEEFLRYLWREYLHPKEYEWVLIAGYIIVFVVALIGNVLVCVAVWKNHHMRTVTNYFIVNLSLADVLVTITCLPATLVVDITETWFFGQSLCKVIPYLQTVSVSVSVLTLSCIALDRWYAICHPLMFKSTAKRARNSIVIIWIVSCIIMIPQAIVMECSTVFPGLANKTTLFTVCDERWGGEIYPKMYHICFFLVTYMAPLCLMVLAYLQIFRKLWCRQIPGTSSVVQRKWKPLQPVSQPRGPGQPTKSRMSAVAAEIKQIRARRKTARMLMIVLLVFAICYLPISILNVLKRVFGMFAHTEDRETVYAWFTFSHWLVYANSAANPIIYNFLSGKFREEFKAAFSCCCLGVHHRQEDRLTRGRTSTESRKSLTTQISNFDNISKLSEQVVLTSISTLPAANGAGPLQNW
T1 sequence (O43613 whole entry): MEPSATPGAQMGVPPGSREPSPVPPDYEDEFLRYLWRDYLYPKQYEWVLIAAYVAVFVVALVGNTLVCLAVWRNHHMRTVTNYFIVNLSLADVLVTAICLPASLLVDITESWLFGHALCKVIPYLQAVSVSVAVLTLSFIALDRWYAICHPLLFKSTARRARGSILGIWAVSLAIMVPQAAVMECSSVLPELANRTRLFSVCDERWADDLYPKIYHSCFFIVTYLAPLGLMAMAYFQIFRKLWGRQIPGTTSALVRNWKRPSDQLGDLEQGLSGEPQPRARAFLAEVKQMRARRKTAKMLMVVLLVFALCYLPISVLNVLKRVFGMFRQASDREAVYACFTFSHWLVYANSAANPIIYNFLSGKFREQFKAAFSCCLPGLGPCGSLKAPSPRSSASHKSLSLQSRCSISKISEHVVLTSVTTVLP

Turning to `COc1ccnc(-c2nn(C)c3nc(OCC(=O)N[C@@H](C)c4ccc(C)cc4)cc(C)c23)c1` [Example 6.37, (S)-2-(3-(4-methoxypyridin-2-yl)-1,4-dimethyl-1H-pyrazolo[3,4-b]pyridin-6-yloxy)-N-(1-p-tolylethyl)acetamide], the values for the Kd at human orexin 1 receptors [1] and on human orexin 2 receptors [2] were 6 nM and 17 nM, respectively. Further, the Ki (in general, a measure of affinity in units of concentration, obtained from inhibition or displacement) on human orexin 2 receptors [3] turned out to be 10 nM; on human orexin 1 receptors [4], 7 nM.

`COc1ccccc1-c1nn(C)c2nc(OCC(=O)N[C@@H](C)c3ccc(C)cc3)ccc12` [Example 6.24, (S)-2-(3-(2-methoxyphenyl)-1-methyl-1H-pyrazolo[3,4-b]pyridin-6-yloxy)-N-(1-p-tolylethyl)acetamide]: the dissociation constant (Kd) (commonly the constant that tells how readily two partners part at equilibrium) on human orexin 1 receptors [1] turned out to be 45 nM; at human orexin 2 receptors [2], 150 nM. For the same molecule, the inhibition constant Ki was 105 nM at human orexin 2 receptors [3] and 133 nM on human orexin 1 receptors [4].

As for `Cc1ccc([C@H](C)NC(=O)COc2cc(C(F)(F)F)c3c(C4CC4)nn(C)c3n2)cc1` [Example 6.13, (S)-2-(3-cyclopropyl-1-methyl-4-(trifluoromethyl)-1H-pyrazolo[3,4-b]pyridin-6-yloxy)-N-(1-p-tolylethyl)acetamide], the Kd on human orexin 1 receptors [1] was 44 nM; on human orexin 2 receptors [2] it was 14 nM. Also, the Ki on human orexin 2 receptors [3] came to 6 nM; on human orexin 1 receptors [4], 52 nM.

Take `Cc1ccc2c(n1)CC[C@@H]2NC(=O)COc1cc(C(F)F)c2c(C3CC3)nn(C)c2n1` [Example 6.2, (S)-2-(3-cyclopropyl-4-(difluoromethyl)-1-methyl-1H-pyrazolo[3,4-b]pyridin-6-yloxy)-N-(2-methyl-6,7-dihydro-5H-cyclopenta[b]pyridin-5-yl)acetamide]: the Kd on human orexin 1 receptors [1] is 61 nM; on human orexin 2 receptors [2] it was 75 nM. The inhibitory constant (Ki) amounted to 50 nM on human orexin 2 receptors [3] and 284 nM on human orexin 1 receptors [4].

As to `Cc1ccc([C@H](C)NC(=O)COc2cc(C)c3c(-c4ncccc4F)nn(C)c3n2)cc1` [Example 4.1, (S)-2-((3-(3-fluoropyridin-2-yl)-1,4-dimethyl-1H-pyrazolo[3,4-b]pyridin-6-yl)oxy)-N-(1-(p-tolyl)ethyl)acetamide], the figures for the dissociation constant (Kd) on human orexin 1 receptors [1] and on human orexin 2 receptors [2] were 27 nM and 22 nM, respectively. Further, the figures for the Ki on human orexin 2 receptors [3] and at human orexin 1 receptors [4] were 35 nM and 133 nM, respectively.

Regarding `COc1ccc([C@H](C)NC(=O)COc2cc(C(F)F)c3c(-c4cc(C)oc4C)nn(C)c3n2)cc1` [Example 6.39, (S)-2-(4-(difluoromethyl)-3-(2,5-dimethylfuran-3-yl)-1-methyl-1H-pyrazolo[3,4-b]pyridin-6-yloxy)-N-(1-(4-methoxyphenyl)ethyl)acetamide], the Kd at human orexin 1 receptors [1] was determined as 20 nM; at human orexin 2 receptors [2] it was 65 nM. Also, the Ki at human orexin 2 receptors [3] was determined as 46 nM; at human orexin 1 receptors [4], 15 nM.

With `COc1ccc(C(C)NC(=O)COc2cc(C(F)F)c3c(-c4ccccc4)nn(C)c3n2)cn1` (stereo not drawn) [Example 6.22, 2-(4-(difluoromethyl)-1-methyl-3-phenyl-1H-pyrazolo[3,4-b]pyridin-6-yloxy)-N-(1-(6-methoxypyridin-3-yl)ethyl)acetamide], the dissociation constant (Kd) was 56 nM on human orexin 1 receptors [1] and 42 nM at human orexin 2 receptors [2]. The results for the inhibitory constant (Ki) at human orexin 2 receptors [3] and on human orexin 1 receptors [4] were 37 nM and 175 nM, respectively.

On to `Cc1ccc([C@H](C)NC(=O)COc2cc(C)c3c(-c4cnccn4)nn(C)c3n2)cc1` [Example 4.8, (S)-2-(1,4-dimethyl-3-(pyrazin-2-yl)-1H-pyrazolo[3,4-b]pyridin-6-yloxy)-N-(1-p-tolylethyl)acetamide], for which the values for the Kd at human orexin 1 receptors [1] and at human orexin 2 receptors [2] were 20 nM and 22 nM, respectively. In addition, the Ki is 15 nM on human orexin 2 receptors [3] and 52 nM at human orexin 1 receptors [4].

Consider `Cc1ccc([C@H](C)NC(=O)COc2cc(C)c3c(-c4cscn4)nn(C)c3n2)cc1` [Example 4.10, (S)-2-(1,4-dimethyl-3-(thiazol-4-yl)-1H-pyrazolo[3,4-b]pyridin-6-yloxy)-N-(1-p-tolylethyl)acetamide], for which the Kd worked out at 5 nM on human orexin 1 receptors [1] and 6 nM on human orexin 2 receptors [2]. Besides, the Ki on human orexin 2 receptors [3] and at human orexin 1 receptors [4] was 5 nM each time.

For `COc1ccc2c(c1)CC[C@@H]2NC(=O)COc1cc(C(F)(F)F)c2c(C3CC3)nn(C)c2n1` [Example 6.43, (S)-2-(3-cyclopropyl-1-methyl-4-(trifluoromethyl)-1H-pyrazolo[3,4-b]pyridin-6-yloxy)-N-(5-methoxy-2,3-dihydro-1H-inden-1-yl)acetamide], the results for the Kd on human orexin 1 receptors [1] and on human orexin 2 receptors [2] were 206 nM and 18 nM, respectively. For the same molecule, the values for the Ki at human orexin 2 receptors [3] and on human orexin 1 receptors [4] were 3 nM and 234 nM, respectively.

Turning to `Cc1ccc([C@H](C)NC(=O)COc2cc(C)c3c(C(C)C)nn(C)c3n2)cc1` [Example 6.26, (S)-2-(3-isopropyl-1,4-dimethyl-1H-pyrazolo[3,4-b]pyridin-6-yloxy)-N-(1-p-tolylethyl)acetamide], the equilibrium dissociation constant (Kd) on human orexin 1 receptors [1] amounted to 119 nM; at human orexin 2 receptors [2], 76 nM. Besides, the Ki came out at 32 nM on human orexin 2 receptors [3] and 164 nM at human orexin 1 receptors [4].

As to `Cc1ccc2c(c1)CC[C@@H]2NC(=O)COc1cc(C)c2c(C3CC3)nn(C)c2n1` [Example 6.44, (S)-2-(3-cyclopropyl-1,4-dimethyl-1H-pyrazolo[3,4-b]pyridin-6-yloxy)-N-(5-methyl-2,3-dihydro-1H-inden-1-yl)acetamide], the dissociation constant Kd on human orexin 1 receptors [1] is 67 nM; on human orexin 2 receptors [2], 28 nM. The values for the Ki at human orexin 2 receptors [3] and on human orexin 1 receptors [4] were 14 nM and 223 nM, respectively.

`Cc1ccc([C@H](C)NC(=O)COc2cc(C)c3c(-c4cncs4)nn(C)c3n2)cc1` [Example 5.4, (S)-2-(1,4-dimethyl-3-(thiazol-5-yl)-1H-pyrazolo[3,4-b]pyridin-6-yloxy)-N-(1-p-tolylethyl)acetamide]: the Kd on human orexin 1 receptors [1] amounted to 46 nM; at human orexin 2 receptors [2], 26 nM. Besides, the results for the Ki on human orexin 2 receptors [3] and at human orexin 1 receptors [4] were 11 nM and 179 nM, respectively.

Consider `COc1ccc(C(C)NC(=O)COc2cc(C(F)(F)F)c3c(C4CC4)nn(C)c3n2)cn1` (stereo not drawn) [Example 6.14, 2-(3-cyclopropyl-1-methyl-4-(trifluoromethyl)-1H-pyrazolo[3,4-b]pyridin-6-yloxy)-N-(1-(6-methoxypyridin-3-yl)ethyl)acetamide], for which the results for the Kd on human orexin 1 receptors [1] and at human orexin 2 receptors [2] were 428 nM and 141 nM, respectively. Also, the inhibitory constant (Ki) on human orexin 2 receptors [3] worked out at 72 nM; on human orexin 1 receptors [4] it was 523 nM.

As to `COc1ccc([C@H](C)NC(=O)COc2cc(C(F)(F)F)c3c(C4CC4)nn(C)c3n2)cc1` [Example 6.15, (S)-2-(3-cyclopropyl-1-methyl-4-(trifluoromethyl)-1H-pyrazolo[3,4-b]pyridin-6-yloxy)-N-(1-(4-methoxyphenyl)ethyl)acetamide], the Kd on human orexin 1 receptors [1] stood at 146 nM; at human orexin 2 receptors [2] it was 37 nM. The Ki at human orexin 2 receptors [3] stood at 12 nM; at human orexin 1 receptors [4], 160 nM.

The values above are taken from patent publication US8742106B2 (Novartis AG, priority 2009, dated 2014).
